One series deals with Prothrombin (Homo sapiens, UniProt P00734). In words: In vitro inhibitory activity against thrombin in human plasma. It is filed as cell-free.
A further series deals with Serine protease 1 (Homo sapiens, UniProt P07477). Put plainly: Inhibitory activity against trypsin.
The target in the next series is Coagulation factor X (Homo sapiens, UniProt P00742). In words: Inhibitory activity against coagulation factor X in human plasma. It counts as cell-free.
A further series deals with Plasminogen (Homo sapiens, UniProt P00747). Put plainly: Inhibitory activity against plasmin in human plasma.
Series [1] can be described thus: Partition coefficient (logP). It counts as physicochemical. Conditions: octanol/water.
The species entered for a further series is Homo sapiens. In words: Effective dose (in vitro) using activated partial thromboplastin time (aPTT). It counts as functional.

IC50, logP and ED200 data for 14 compounds are collected here from ChEMBL document CHEMBL1136099, “Heterocyclic thrombin inhibitors. Part 1: design and synthesis of amidino-phenoxy quinoline derivatives” (Bioorg Med Chem Lett, 2003).

Structures are written as SMILES. Some results are limits rather than exact numbers.

As usually defined, the IC50 is the concentration that gives 50% inhibition. The low end stands for greater potency in that assay, the high end for weaker potency in that assay. For orientation: logP means the decadic logarithm of the partition coefficient of the neutral form, usually between octanol and water. Read a high logP as higher lipophilicity.

Serine protease 1, sequence (P07477 whole entry): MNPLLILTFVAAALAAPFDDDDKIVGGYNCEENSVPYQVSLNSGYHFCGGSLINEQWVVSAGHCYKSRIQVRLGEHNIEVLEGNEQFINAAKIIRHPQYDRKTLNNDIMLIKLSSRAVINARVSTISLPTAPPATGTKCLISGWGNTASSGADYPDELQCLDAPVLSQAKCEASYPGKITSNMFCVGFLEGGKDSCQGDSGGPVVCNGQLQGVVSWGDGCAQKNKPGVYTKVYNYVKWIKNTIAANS
Plasminogen, sequence (P00747 97-580 limits assumed): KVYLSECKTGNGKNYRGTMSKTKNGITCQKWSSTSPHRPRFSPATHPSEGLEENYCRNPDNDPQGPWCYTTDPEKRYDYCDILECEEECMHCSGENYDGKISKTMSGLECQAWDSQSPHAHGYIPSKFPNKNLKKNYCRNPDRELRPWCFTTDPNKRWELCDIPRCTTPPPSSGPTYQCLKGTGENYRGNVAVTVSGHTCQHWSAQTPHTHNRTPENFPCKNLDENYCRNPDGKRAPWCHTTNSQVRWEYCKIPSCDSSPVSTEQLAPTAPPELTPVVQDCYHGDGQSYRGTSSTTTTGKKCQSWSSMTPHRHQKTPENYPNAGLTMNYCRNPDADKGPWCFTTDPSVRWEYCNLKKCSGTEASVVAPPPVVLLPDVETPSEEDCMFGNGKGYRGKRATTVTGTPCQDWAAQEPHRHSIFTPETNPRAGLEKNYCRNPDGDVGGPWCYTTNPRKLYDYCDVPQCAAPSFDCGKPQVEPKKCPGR
Plasminogen, sequence (P00747 581-810 limits assumed): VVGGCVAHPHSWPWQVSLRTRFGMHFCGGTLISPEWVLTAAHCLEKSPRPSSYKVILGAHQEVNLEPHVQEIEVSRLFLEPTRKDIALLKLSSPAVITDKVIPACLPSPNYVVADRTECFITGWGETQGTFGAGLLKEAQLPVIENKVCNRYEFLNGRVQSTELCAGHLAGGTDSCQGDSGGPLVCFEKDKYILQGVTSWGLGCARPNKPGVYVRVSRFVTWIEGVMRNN
Coagulation factor X, sequence (P00742 41-179 limits assumed): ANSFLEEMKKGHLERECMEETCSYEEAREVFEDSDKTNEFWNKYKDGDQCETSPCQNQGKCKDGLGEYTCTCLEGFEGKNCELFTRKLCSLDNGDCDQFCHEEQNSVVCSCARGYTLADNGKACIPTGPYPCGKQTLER
Coagulation factor X, sequence (P00742 235-488 limits assumed): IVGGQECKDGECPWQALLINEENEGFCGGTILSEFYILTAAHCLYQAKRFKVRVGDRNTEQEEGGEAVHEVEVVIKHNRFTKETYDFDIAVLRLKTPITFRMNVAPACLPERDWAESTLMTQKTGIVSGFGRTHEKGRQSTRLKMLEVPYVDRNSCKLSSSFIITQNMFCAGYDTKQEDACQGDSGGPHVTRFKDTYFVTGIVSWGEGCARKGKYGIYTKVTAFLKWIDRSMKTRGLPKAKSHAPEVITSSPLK

Take `CCOC(=O)C1(c2ccc3c(C)cc(Oc4ccc(C(=N)N)cc4)nc3c2)CCCC1`: the IC50 against Prothrombin amounted to 3 nM; on Serine protease 1, 560 nM; against Coagulation factor X it was 1500 nM; at Plasminogen, 5800 nM.
For the compound `Cc1ccc(-c2ccc3c(C)cc(Oc4ccc(C(=N)N)cc4)nc3c2)cc1`, the half-maximal inhibitory concentration (IC50) against Prothrombin is 18 nM; at Serine protease 1, 4200 nM; on Plasminogen, 12200 nM.
In turn, `Cc1ccc(C(=O)NCC(=O)O)cc1-c1ccc2c(C)cc(Oc3ccc(C(=N)N)cc3)nc2c1` registered an IC50 at Prothrombin of 8 nM. The lipophilicity (logP) in series [1] was found to be 0.5. In the series filed under Homo sapiens, this compound registered an ED200 of 0.9 µM.
As for `C/C(=C\C(=O)O)c1ccc2c(C)cc(Oc3ccc(C(=N)N)cc3)nc2c1`, the IC50 against Prothrombin amounted to 600 nM; against Serine protease 1, 8100 nM; on Plasminogen it was 25000 nM.
Consider `Cc1ccccc1-c1ccc2c(C)cc(Nc3ccc(C(=N)N)cc3)nc2c1`, for which the IC50 on Prothrombin was 37 nM; at Serine protease 1, 3500 nM; on Plasminogen, 14800 nM.
`CCOC(=O)C(CC)c1ccc2c(C)cc(Oc3ccc(C(=N)N)cc3)nc2c1` (stereo not given) registered an IC50 at Prothrombin of 10 nM.
Take `Cc1cc(Oc2ccc(C(=N)N)cc2)nc2cc(Br)ccc12`: the half-inhibitory concentration (IC50) against Prothrombin was determined as 66 nM.
With `CCOC(=O)CNC(=O)c1ccc(C)c(-c2ccc3c(C)cc(Oc4ccc(C(=N)N)cc4)nc3c2)c1`, half-maximal inhibition against Prothrombin (IC50) required 10 nM. The compound further showed a logP in series [1] of 1.3. This compound gave an ED200 in the series listed under Homo sapiens of 3.3 µM.
On to `CCOC(=O)/C=C(\C)c1ccc2c(C)cc(Oc3ccc(C(=N)N)cc3)nc2c1`, for which the IC50 against Prothrombin stood at 16 nM; at Serine protease 1, 6700 nM; against Plasminogen, 6400 nM.
For `Cc1cc(Sc2ccc(C(=N)N)cc2)nc2cc(Br)ccc12`, 196 nM corresponded to half-maximal inhibition against Prothrombin (IC50).
Consider `CCOC(=O)Cc1ccc2c(C)cc(Oc3ccc(C(=N)N)cc3)nc2c1`, for which inhibition against Prothrombin was half-maximal at 92 nM (IC50).
For `Cc1ccccc1-c1ccc2c(C)cc(Oc3ccc(C(=N)N)cc3)nc2c1`, the IC50 stood at 6 nM on Prothrombin, 2900 nM at Serine protease 1 and 8300 nM against Plasminogen. The logP in series [1] is greater than 3.5. This compound also returned an ED200 in the series listed under Homo sapiens of 7.9 µM.
Compound `Cc1cc(Nc2ccc(C(=N)N)cc2)nc2cc(Br)ccc12` registered a 50% inhibitory concentration (IC50) at Prothrombin of 87 nM.
As for `CCOC(=O)C(C)(C)c1ccc2c(C)cc(Oc3ccc(C(=N)N)cc3)nc2c1`, the half-inhibitory concentration (IC50) at Prothrombin was determined as 6 nM; on Serine protease 1 it was 2400 nM; against Plasminogen it was 20000 nM.
